Source: ChEMBL document CHEMBL2331142, “Synthesis of new triazole acetamides with inotropic effects” (Bioorg Med Chem Lett, 2013)
The source made the active and inactive calls. No cut-off for these calls is given here.

Assays:
[1] = (§1) Positive inotropic effect in rabbit left atrium assessed as increase in stroke volume at 3 x 10^-5 M measured for 2 mins relative to control; type: functional, Oryctolagus cuniculus, Cardiac atrium
[2] = species: Oryctolagus cuniculus; assay: Chronotropic effect in rabbit heart assessed as change in heart rate at 3 x 10^-5 M by electrocardiogram analysis relative to control; type: ADME, organism-based; settings: in vivo, 30 µM
[3] = species: Oryctolagus cuniculus; assay: Positive inotropic effect in rabbit left atrium assessed as increase in stroke volume at 1 x 10^-4 M measured for 2 mins; type: functional, tissue-based; settings: Cardiac atrium
[4] = species: Oryctolagus cuniculus; assay: as §1; type: functional; settings: Cardiac atrium
[5] = Ratio of compound activity to milrinone activity for increase in stroke volume in rabbit left atrium at 3 x 10^-5 M; type: functional, Oryctolagus cuniculus, Cardiac atrium

Work on `O=C(CN1CCN(Cc2cccc(Cl)c2)CC1)Nc1ccc2c(c1)CCc1nnc(-c3ccccc3Cl)n1-2` yielded an Activity [1] of 2.18%.

In the case of `Cc1ccc(CN2CCN(CC(=O)Nc3ccc4c(c3)CCc3nnc(-c5cccc(Cl)c5)n3-4)CC2)cc1`, the Activity [1] was 4.25%.

In the case of `O=C(CN1CCN(Cc2cccc(F)c2)CC1)Nc1ccc2c(c1)CCc1nnc(-c3cccc(Cl)c3)n1-2`, the Activity [1] was 6.33%.

In the case of `O=C(CN1CCN(Cc2ccccc2)CC1)Nc1ccc2c(c1)CCc1nnc(-c3ccccc3Cl)n1-2`, the Activity [2] was “Non-toxic” and the Activity [1] was 15.62%.

With `COc1ccc(CN2CCN(CC(=O)Nc3ccc4c(c3)CCc3nnc(-c5cccc(Cl)c5)n3-4)CC2)cc1` the Activity [2] was “Non-toxic”, the Activity [3] was “Active” and the Activity [1] was 16.84%.

For `O=C(CN1CCN(Cc2cccc(Br)c2)CC1)Nc1ccc2c(c1)CCc1nnc(-c3cccc(Cl)c3)n1-2`, the Activity [4] was “inactive”.

Molecule `O=C(CN1CCN(Cc2ccccc2)CC1)Nc1ccc2c(c1)CCc1nnc(-c3cccc(Cl)c3)n1-2` has an Activity [1] of 8.07%.

For `CCCCCCN1CCN(CC(=O)Nc2ccc3c(c2)CCc2nnc(-c4cccc(Cl)c4)n2-3)CC1`, the Activity [4] was “inactive”.

With `COc1ccc(CN2CCN(CC(=O)Nc3ccc4c(c3)CCc3nnc(-c5ccccc5Cl)n3-4)CC2)cc1` the Activity [1] was 9.12%.

`O=C(CN1CCN(Cc2ccc(Br)cc2)CC1)Nc1ccc2c(c1)CCc1nnc(-c3cccc(Cl)c3)n1-2` showed an Activity [1] of 2.31%.

`O=C(CN1CCN(Cc2ccccc2F)CC1)Nc1ccc2c(c1)CCc1nnc(-c3ccccc3Cl)n1-2` showed an Activity [1] of 2.39%.

With `O=C(CN1CCN(Cc2ccc(F)cc2)CC1)Nc1ccc2c(c1)CCc1nnc(-c3cccc(Cl)c3)n1-2` the Activity [2] was “Non-toxic” and the Activity [1] was 16.49%.

In the case of `O=C(CN1CCN(Cc2ccccc2F)CC1)Nc1ccc2c(c1)CCc1nnc(-c3cccc(Cl)c3)n1-2`, the Ratio [5] was 8.2, the Activity [2] was “Non-toxic” and the Activity [3] was “Active”. The Activity [1] was 20.29%.

In the case of `O=C(CN1CCN(Cc2cccc(Cl)c2)CC1)Nc1ccc2c(c1)CCc1nnc(-c3cccc(Cl)c3)n1-2`, the Activity [2] was “Toxic” and the Activity [1] was 15.75%.

In the case of `O=C(CN1CCN(Cc2ccc(Cl)c(Cl)c2)CC1)Nc1ccc2c(c1)CCc1nnc(-c3cccc(Cl)c3)n1-2`, the Activity [4] was “inactive”.

For `CCCCCCCCN1CCN(CC(=O)Nc2ccc3c(c2)CCc2nnc(-c4cccc(Cl)c4)n2-3)CC1`, the Activity [4] was “inactive”.

In the case of `CCCCCN1CCN(CC(=O)Nc2ccc3c(c2)CCc2nnc(-c4cccc(Cl)c4)n2-3)CC1`, the Activity [1] was 0.8%.

Molecule `O=C(CN1CCN(Cc2ccc(F)cc2)CC1)Nc1ccc2c(c1)CCc1nnc(-c3ccccc3Cl)n1-2` has an Activity [1] of 4.58%.

For `O=C(CN1CCN(Cc2ccc(Cl)cc2)CC1)Nc1ccc2c(c1)CCc1nnc(-c3cccc(Cl)c3)n1-2`, the Activity [1] was 7.22%.

In the case of `O=C(CN1CCN(Cc2ccc(Cl)cc2Cl)CC1)Nc1ccc2c(c1)CCc1nnc(-c3cccc(Cl)c3)n1-2`, the Activity [4] was “inactive”.

`CCCCN1CCN(CC(=O)Nc2ccc3c(c2)CCc2nnc(-c4cccc(Cl)c4)n2-3)CC1` showed an Activity [1] of 2.33%.

In the case of `O=C(CN1CCN(Cc2ccccc2Br)CC1)Nc1ccc2c(c1)CCc1nnc(-c3cccc(Cl)c3)n1-2`, the Activity [4] was “inactive”.

`O=C(CN1CCN(Cc2ccccc2Cl)CC1)Nc1ccc2c(c1)CCc1nnc(-c3cccc(Cl)c3)n1-2` gave an Activity [1] of 0.8%.

`Cc1[nH]c(=O)c(C#N)cc1-c1ccncc1` [MILRINONE] showed an Activity [1] of 2.46%.
